Our source for the IC50 and viability, T/C values is PubChem BioAssay AID1845194 (Molecular Pharmacology Branch, DTP, NCI, 2023).

This experiment relates to 287954-098-R-J1 tumor spheroid viability. The experiment can be described thus: Anticancer human tumor 287954-098-R-J1 patient-derived Ewing sarcoma cell line growth inhibition. The following applies: spheroids with HUVEC and MSC; for viability, T/C: stronger effect = lower value. The gist of the method: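 Single agents and combinations were tested on spheroids built from tumor cells plus HUVEC and hMSC, at half-log dilutions starting at or near clinical Cmax, else 10 microM; final DMSO 0.25% (v/v).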

The IC50 is the midpoint of a concentration-inhibition curve. The viability, T/C is the result in the treated group divided by that in the control group, in per cent.

Several values for one entry are separate records, joined by “and”; a condition that tells them apart may be missing. Equal entries are not always repeated.
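Also: spheroids exposed to compound for 7 days before viability readout.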
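For viability, T/C in this document: luminescent signal taken as surrogate of viable cell content; 100% = DMSO vehicle control viability and lower means growth inhibition.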

For the compound `Cc1cc(C)c(CNC(=O)c2cc(-c3ccc(CN4CCOCC4)cc3)cc3c2cnn3C2CCCC2)c(=O)[nH]1` + CC[C@@]1(O)C(=O)OCc2c1cc1n(c2=O)Cc2cc3c(CN(C)C)c(O)ccc3nc2-1, the IC50 (curve of first compound, second compound 0.003 µM) was > 10000 nM; the half-maximal inhibitory concentration (IC50) (curve of first compound, second compound 0.00949 µM) was > 10000 nM; the IC50 (curve of first compound, second compound 0.03 µM) is < 31.6 nM; the IC50 (curve of first compound, second compound 0.0949 µM) is < 31.6 nM; the IC50 (curve of first compound, second compound 0.3 µM) was < 31.6 nM. Moreover, the viability, T/C was 104% (second compound 0.003 µM, first compound 0.0316 µM); 106% (second compound 0.003 µM, first compound 0.1 µM); 98.6% (second compound 0.003 µM, first compound 0.316 µM); 96.5% (second compound 0.003 µM, first compound 1 µM); 102% (second compound 0.003 µM, first compound 3.16 µM); 119% (second compound 0.003 µM, first compound 10 µM). The viability, T/C is, setting by setting: (second compound 0.00949 µM, first compound 0.0316 µM) 100%; (second compound 0.00949 µM, first compound 0.1 µM) 114%; (second compound 0.00949 µM, first compound 0.316 µM) 102%; (second compound 0.00949 µM, first compound 1 µM) 108%; (second compound 0.00949 µM, first compound 3.16 µM) 104%; (second compound 0.00949 µM, first compound 10 µM) 104%. In addition, the viability, T/C runs as follows: (second compound 0.03 µM, first compound 0.0316 µM) 12.5%; (second compound 0.03 µM, first compound 0.1 µM) 42.9%; (second compound 0.03 µM, first compound 0.316 µM) 21.1%; (second compound 0.03 µM, first compound 1 µM) 36.1%; (second compound 0.03 µM, first compound 3.16 µM) 28.2%; (second compound 0.03 µM, first compound 10 µM) 18.9%. Also, the viability, T/C is, setting by setting: (second compound 0.0949 µM, first compound 0.0316 µM) 2.57%; (second compound 0.0949 µM, first compound 0.1 µM) 2.37%; (second compound 0.0949 µM, first compound 0.316 µM) 2.24%; (second compound 0.0949 µM, first compound 1 µM) 2.24%; (second compound 0.0949 µM, first compound 3.16 µM) 2.58%; (second compound 0.0949 µM, first compound 10 µM) 2.04%. Also, the viability, T/C by setting is: (second compound 0.3 µM, first compound 0.0316 µM) 2.22%; (second compound 0.3 µM, first compound 0.1 µM) 2.08%; (second compound 0.3 µM, first compound 0.316 µM) 2.15%; (second compound 0.3 µM, first compound 1 µM) 2.38%; (second compound 0.3 µM, first compound 3.16 µM) 2.39%; (second compound 0.3 µM, first compound 10 µM) 1.61%.
Turning to `CNCc1ccc(-c2cc(-c3nc(-c4ccc(S(=O)(=O)C(C)C)cc4)cnc3N)on2)cc1`, the viability, T/C is, setting by setting: (compound 0.00949 µM) 103% (2×) and 109%; (compound 0.03 µM) 108% and 117% and 107%; (compound 0.0949 µM) 110% and 112% and 105%; (compound 0.3 µM) 107% and 103% (2×); (compound 0.949 µM) 0.28% and 0.55% and 0.27%; (compound 3 µM) 0.18% and 0.53% and 0.23%. The IC50 (curve of compound) was 555 nM and 545 nM and 542 nM.
